Numbering of substitutions follows the chain as printed.
Legend:
[1] = biological target: T1, Rat TAAR9 (Rattus norvegicus, UniProt Q923Y6); assay: CRE-luciferase reporter assay in Hana3A; assay type: cell-based; conditions: rat TAAR9, ligand 1 mM, Fig. 1B
T1 construct: expressed in transfected cells; host or cells: Hana3A (HEK293-derived)
T1 sequence (Q923Y6 1-338): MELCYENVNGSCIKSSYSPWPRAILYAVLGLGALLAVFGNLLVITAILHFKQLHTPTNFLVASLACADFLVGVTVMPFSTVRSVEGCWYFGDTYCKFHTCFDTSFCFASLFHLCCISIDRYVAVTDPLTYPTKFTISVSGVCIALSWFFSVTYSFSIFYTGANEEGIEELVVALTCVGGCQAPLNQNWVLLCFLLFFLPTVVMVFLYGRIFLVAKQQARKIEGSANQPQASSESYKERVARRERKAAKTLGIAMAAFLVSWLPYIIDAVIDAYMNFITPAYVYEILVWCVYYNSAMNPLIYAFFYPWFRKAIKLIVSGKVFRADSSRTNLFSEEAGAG
Description: We examined the response of TAAR9s from rat, human, hamster, and rabbit to the stimulation of 1 mM amines using a well-established cAMP response element (CRE)-driven luciferase reporter assay based on Golf-mediated cAMP signal transduction ([5], [24]). In addition to the four mTAAR9 ligands, we included putrescine, which is also a polyamine and precursor of spermine/spermidine biosynthesis.
Mammalian TAAR9 plasmids were transfected into Hana3A cells along with a cAMP-dependent luciferase reporter plasmid (CRE-Luc). Transfected cells were incubated with tested ligands, and luciferase activity was quantified with a […] substrate as a reporter for Golf-mediated TAAR activation. Luciferase activity was indicated by the luminescence value and normalized as a fold-increase over the response to the vehicle stimuli (mean ± S.D., n = 3). […] B, Hana3A cells expressing mouse, rat, human, cat, hamster, and rabbit TAAR9 were incubated with either vehicle or tested ligands (1 mM) and assayed for reporter activity. C, concentration-dependent luciferase activity in Hana3A cells expressing mouse, rat, and cat TAAR9 receptors stimulated with cadaverine, spermidine, and spermine.
The firefly luciferase and renilla luciferase activity was measured with a BioTek microplate reader following manufacturer’s instructions.

[2] = biological target: T2, sTAAR365 D3.32E (Petromyzon marinus, UniProt A0A678XMK4, D114E)
T2 sequence (A0A678XMK4 1-365 D114E): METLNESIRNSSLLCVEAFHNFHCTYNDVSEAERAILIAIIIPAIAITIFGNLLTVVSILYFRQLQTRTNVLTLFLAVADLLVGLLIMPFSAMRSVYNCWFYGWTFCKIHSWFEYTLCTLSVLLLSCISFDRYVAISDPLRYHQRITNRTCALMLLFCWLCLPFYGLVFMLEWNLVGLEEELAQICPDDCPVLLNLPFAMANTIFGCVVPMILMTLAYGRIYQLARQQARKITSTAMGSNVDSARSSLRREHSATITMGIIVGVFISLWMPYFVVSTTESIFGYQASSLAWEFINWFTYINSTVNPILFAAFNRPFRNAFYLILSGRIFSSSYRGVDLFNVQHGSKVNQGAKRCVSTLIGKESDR

[3] = biological target: T2, sTAAR365 D3.32E; assay: cell-based
[4] = biological target: T3, sTAAR365 Y6.51L (Petromyzon marinus, UniProt A0A678XMK4, Y272L); assay: cell-based
T3 sequence (A0A678XMK4 1-365 Y272L): T2 sequence (A0A678XMK4 1-365 D114E) with E114D, Y272L

[5] = biological target: T4, sTAAR365 T7.42A (Petromyzon marinus, UniProt A0A678XMK4, T298A); assay: cell-based
T4 sequence (A0A678XMK4 1-365 T298A): T2 sequence (A0A678XMK4 1-365 D114E) with E114D, T298A

[6] = biological target: T5, sTAAR365 T7.42V (Petromyzon marinus, UniProt A0A678XMK4, T298V); assay: cell-based
T5 sequence (A0A678XMK4 1-365 T298V): T2 sequence (A0A678XMK4 1-365 D114E) with E114D, T298V

[7] = biological target: sTAAR365 E7.36Q (Petromyzon marinus, UniProt A0A678XMK4, E292Q); assay: cell-based
Sequence of sTAAR365 E7.36Q (A0A678XMK4 whole entry E292Q): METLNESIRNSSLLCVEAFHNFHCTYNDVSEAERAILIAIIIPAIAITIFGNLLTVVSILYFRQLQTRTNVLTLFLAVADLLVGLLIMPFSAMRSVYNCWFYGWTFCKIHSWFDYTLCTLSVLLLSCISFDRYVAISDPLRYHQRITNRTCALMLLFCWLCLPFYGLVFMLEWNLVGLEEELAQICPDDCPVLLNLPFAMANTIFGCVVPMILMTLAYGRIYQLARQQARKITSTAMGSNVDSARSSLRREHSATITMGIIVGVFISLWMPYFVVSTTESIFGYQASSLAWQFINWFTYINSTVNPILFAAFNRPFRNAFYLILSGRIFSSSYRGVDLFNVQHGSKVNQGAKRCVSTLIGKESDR

[8] = biological target: sTAAR365 Y7.43F (Petromyzon marinus, UniProt A0A678XMK4, Y299F); assay: cell-based
Sequence of sTAAR365 Y7.43F (A0A678XMK4 whole entry Y299F): as the sequence (A0A678XMK4 whole entry E292Q) above, with Q292E, Y299F counted along it

[9] = biological target: sTAAR365 Y7.43L (Petromyzon marinus, UniProt A0A678XMK4, Y299L); assay: cell-based
Sequence of sTAAR365 Y7.43L (A0A678XMK4 whole entry Y299L): as the sequence (A0A678XMK4 whole entry E292Q) above, with Q292E, Y299L counted along it

[10] = biological target: sTAAR365 W7.40F (Petromyzon marinus, UniProt A0A678XMK4, W296F); assay: cell-based
Sequence of sTAAR365 W7.40F (A0A678XMK4 whole entry W296F): as the sequence (A0A678XMK4 whole entry E292Q) above, with Q292E, W296F counted along it

## NCCCCCN [cadaverine]
[1]
  reporter activity (activation of TAAR9): maximum responses
[2]
  Hill slope of concentration-response curve: 1.44
  increase of EC50 vs wild-type sTAAR365: three
[3]
  EC50: 14 ± 0.5 µM
[4]
  EC50: > 100 µM
[5]
  EC50: 31 ± 24 µM
[6]
  EC50: 9 ± 2 µM
[7]
  EC50: 0.06 ± 0.011 µM
[8]
  EC50: 2 ± 0.2 µM
[9]
  EC50: 1 ± 0.2 µM
[10]
  EC50: 0.223 ± 0.037 µM

## NCCCCN [putrescine]
[1]
  reporter activity (activation of TAAR9): not activated
[2]
  increase of EC50 vs wild-type sTAAR365: one
[3]
  EC50: > 500 µM
[5]
  EC50: > 500 µM
[6]
  EC50: > 500 µM
[8]
  EC50: > 1000 µM
[9]
  EC50: > 1000 µM
[10]
  EC50: > 500 µM

## NCCCNCCCCNCCCN [spermine]
[1]
  reporter activity (activation of TAAR9): maximum responses
[4]
  EC50: > 500 µM
[7]
  EC50: > 500 µM

From article PMC8546428, “Convergent olfactory trace amine-associated receptors detect biogenic polyamines with distinct motifs via a conserved binding site” (The Journal of Biological Chemistry, 2021)
